One series concerns IBV influenza B virus. The experiment in a line: In vivo pharmacodynamics, influenza B virus infection model (lung index, lung viral load). Particulars: IBV-infected BALB/c mice, x ± s, n = 10; for Lung index: 6 mg/kg oral gavage once daily; for PCR relative quantification: lung tissue, dose printed 18 mg/kg. On the set-up: PCR relative quantification: unit not given here. On the procedure:
(§1) In this example, the H3N2 influenza A virus and the IBV influenza B virus were used to intranasally infect BALB/c mice to establish an influenza A virus infection model and an influenza B virus infection model. After infection, the compound of Formula I was administered to the mice by oral gavage. Changes in lung index and lung viral load of the mice were observed. Oseltamivir phosphate granules, baloxavir marboxil, T-3 compound and T-4 compound were set as positive controls to evaluate the in vivo efficacy of the compound of Formula I against influenza viruses.
A total of 210 qualified SPF-grade BALB/c mice, weighing 13.0-15.4 g, half male and half female, were randomly divided into 7 groups based on genders and body weights: normal control group, model control group, oseltamivir phosphate granules group (6 mg/kg), baloxavir marboxil group (6 mg/kg), T-3 compound group (6 mg/kg), T-4 compound group (6 mg/kg) and Compound of Formula I group (6 mg/kg), 30 mice per group. Two hours before the first administration, all mice were lightly anesthetized with ether. Except for the normal control group, all mice were intranasally inoculated with the stock solution of IBV influenza B virus (viral titer: 8 log2) at 100 µL per mouse. The normal control group was administrated with an equal volume of phosphate-buffered solution intranasally. Each group of mice was administered the corresponding concentration of the drug solution at 20 mL/kg by oral gavage, once daily for 5 consecutive days. The normal control group and the model control group were administered an equal volume of 0.5% MC. The body weights of the mice in each group were recorded daily. At 24 h and 48 h after administration, 10 mice (half male and half female) were randomly selected from each group and euthanized by cervical dislocation, and their lungs were dissected and weighed to calculate the lung index. The influenza B viral load in the lung tissue of the mice was detected using a relative fluorescence quantitative PCR method. […]

In the next series the test system is H3N2 influenza A virus. In words: In vivo pharmacodynamics, influenza A virus infection model (lung index, lung viral load). Particulars: H3N2-infected BALB/c mice, x ± s, n = 10; for Lung index: 6 mg/kg oral gavage once daily; for PCR viral load: lung tissue, 6 mg/kg. As to the method:
as §1
A total of 250 qualified SPF-grade BALB/c mice, weighing 11.9-15.1 g, half male and half female, were randomly divided into 7 groups based on genders and body weights: normal control group, model control group, oseltamivir phosphate granules group (6 mg/kg), baloxavir marboxil group (6 mg/kg), T-3 compound group (6 mg/kg), T-4 compound group (6 mg/kg) and Compound of Formula I group (6 mg/kg). The normal control group, oseltamivir phosphate granules group, baloxavir marboxil group, T-3 compound group (6 mg/kg) and T-4 compound group each included 30 mice, and the model control group and the Compound of Formula I group each included 50 mice. Two hours before the first administration, all mice were lightly anesthetized with ether. Except for the normal control group, all mice were intranasally inoculated with the stock solution of H3N2 influenza A virus (viral titer: 6 log2) at 100 µL per mouse. The normal control group was administrated with an equal volume of phosphate-buffered solution intranasally. Each group of mice was administered the corresponding concentration of the drug solution at 20 mL/kg, once daily for 5 consecutive days. The normal control group and the model control group were administered an equal volume of 0.5% methylcellulose (0.5% MC) by oral gavage. The body weights of the mice in each group were recorded daily. At 24 h and 48 h after administration, 10 mice (half male and half female) were randomly selected from each group and euthanized by cervical dislocation, and their lungs were dissected and weighed to calculate the lung index. The influenza A viral load in the lung tissue of the mice was detected using a real-time quantitative polymerase chain reaction (PCR) method. In the model control group and the Compound of Formula I group, 10 mice were euthanized at 12 h, 24 h, 48 h, 72 h, and 5 days after administration. The left lung was collected to assess the H3N2 influenza A viral load. […]

In series [1] the test system is influenza A virus subtype H3N2 strain (A/California/2/2014). In words: Cytopathic effect (CPE) assay in MDCK cells, influenza A. The series is classed as cell-based. The following applies: for EC50: Influenza A virus, H3N2, MDCK cells, 100 TCID50, CPE assay, CCK-8, read-out: EC50 against the influenza A virus subtype H3N2 strain (A/California/2/2014). On the technique in general: Damage to the host cells serves as the signal in cytopathic effect assays.

The nature of series [2]: In vitro cytotoxicity, Cell Counting Kit (CCK-8). The series is classed as cell-based, canine. Particulars: dog; MDCK cells, 48 h incubation, CCK-8, OD450nm; read-out: IC50 (cytotoxic effects on MDCK cells). On the procedure:
The in vitro cytotoxic effects of the test compound (the compound of Formula I) and the positive control drugs (baloxavir marboxil, baloxavir, T-3 compound and T-4 compound) on Madin-Darby canine kidney (MDCK) cells were determined using a Cell Counting Kit (CCK-8). MDCK cells were seeded in 96-well plates and cultured overnight. After different concentrations of the drugs were added, the cells were incubated for 48 h. CCK-8 was then added, and the cells were incubated in the dark for […]. The optical density (OD) at 450 nm (OD450nm) values were measured using a microplate reader, and the half-maximal inhibitory concentration (IC50) of the drugs on the cells was calculated.

Series [3] concerns influenza B virus strain (B/Florida/78/2015). The experiment in a line: Cytopathic effect (CPE) assay in MDCK cells, influenza B. The series is classed as cell-based. Particulars: 100 TCID50, CPE assay, CCK-8, read-out: EC50 against the influenza B virus strain (B/Florida/78/2015).
Series [4] is described as follows: Pharmacokinetics after oral gavage of MC suspension, plasma LC-MS/MS. On the set-up: species or system SD rats. The following applies: SD, rat, in vivo, 0.9 mg/kg. As to the method:
This example investigated the pharmacokinetics profile of the compound of Formula I administered as a methylcellulose (MC) suspension by oral gavage in rats.
The drug concentration of baloxavir was determined using a validated LC-MS/MS analytical method. Plasma samples were precipitated with acetonitrile, and the supernatant was injected for analysis. A chromatographic column, Waters XBridge C8 2.5 µm 2.1×50 mm Column, was used, and a gradient elution was carried out using a mobile phase of 0.1% formic acid in water and acetonitrile (containing 0.1% formic acid), with a flow rate of 0.60 mL/min. Monitoring was carried out using an electrospray ionization (ESI) source in a positive ion mode with a multiple reaction monitoring (MRM) method. The linear range for baloxavir was 0.1000 to 100.0 ng/mL, with a lower limit of quantification of 0.1000 ng/mL; the linear range for baloxavir marboxil was 0.1000 to 5.000 ng/mL, with a lower limit of quantification of 0.1000 ng/mL; the linear range for the compound of Formula I was 0.1000 to 5.000 ng/mL, with a lower limit of quantification of 0.1000 ng/mL; the linear range for the T-3 compound was 0.1000 to 5.000 ng/mL, with a lower limit of quantification of 0.1000 ng/mL; and the linear range for the T-4 compound was 0.1000 to 5.000 ng/mL, with a lower limit of quantification of 0.1000 ng/mL.
This experiment used the marketed drug baloxavir marboxil and the analogous compounds T-3 and T-4 as references to investigate the differences in single-dose pharmacokinetics characteristics between the compound of Formula I and the above compounds. The dose groups were designed as follows: baloxavir marboxil group, with a medium dose (0.9 mg/kg, calculated as baloxavir), T-3 and T-4 compound groups, with a medium dose (0.9 mg/kg), and Compound of Formula I group, with a medium dose (0.9 mg/kg). Blood samples (approximately 0.2 mL) were collected via the orbital plexus before administration (0 h) and at 5 min, 15 min, 30 min, 1 h, 2 h, 4 h, 6 h, 8 h, 12 h, and 24 h after administration. Plasma was separated by centrifugation at 1700 g for 10 min, and plasma drug concentrations were determined by the LC-MS/MS method. Measured concentration values below 80% of the lower limit of quantification of the analyzed subject were considered not detected (counted as zero) or below the limit of quantification (counted as ND); values before the peak concentration Cmax were counted as zero, and values after the peak concentration were counted as ND. Pharmacokinetics parameters were calculated using Phoenix WinNonlin 8.0 software.
The main pharmacokinetics parameter experiment results are as follows: The primary pharmacokinetics parameters after the administration of different doses of a suspension of the compound of Formula I to SD rats by oral gavage are shown in Table 5 below.

The values that follow come from EP4696693A1, “HEXAHYDRO[1,4]OXAZINO[3,4-C]PYRIDO[2,1-F][1,2,4]TRIAZINE DEUTERATED DERIVATIVE, PHARMACEUTICAL COMPOSITION THEREOF, PREPARATION METHOD THEREFOR, AND ANTI-INFLUENZA USE THEREOF” (Changsha Jingyi Pharmaceutical Technology Co., Ltd, priority 2023, dated 2024).

As to `[2H]C([2H])([2H])C([2H])([2H])OC(=O)OCOc1c2n(ccc1=O)N([C@@H]1c3ccccc3SCc3c1ccc(F)c3F)[C@@H]1COCCN1C2=O` [Compound of Formula I, [[(12aR)-12-[(11S)-7,8-difluoro-6,11-dihydrodibenzo[b,e]thiepin-11-yl]-6,8-dioxo-3,4,6,8,12,12 a-hexahydro-1H-[1,4]oxazino[3,4-c]pyrido[2,1-f][1,2,4]triazin-7-yl]oxy]methyl (ethyl-d5) carbonate], in the series with IBV influenza B virus (24 h after administration), the Lung index is given as 12.01 ± 1.09 mg/g and the PCR relative quantification was determined as 1416.57 ± 1122.12. In the series with IBV influenza B virus (48 h after administration), the Lung index is recorded as 9.79 ± 0.90^×× mg/g and the PCR relative quantification is on record as 1206.66 ± 1034.87. In the series with H3N2 influenza A virus (24 h after administration), the Lung index is 8.67 ± 0.51^×× mg/g and the PCR viral load is recorded as 1308927 ± 1042821^×× copies. Further, in the series with H3N2 influenza A virus (48 h after administration), the Lung index was 9.00 ± 0.57^× mg/g and the PCR viral load was 193017 ± 192655^×× copies. Further, the EC50 in series [1] came out at 0.00502 µM. Further, the “protection against influenza virus-induced cell damage” value in series [1] (concentration of 250 nM, influenza virus, strain not specified) is on record as “significant protection”. In series [2], the IC50 (in general, the concentration that inhibits the measured activity by half) at 48 h was 17.4 µM. Further, the EC50 in series [3] was 0.00815 µM. In addition, in series [4], the “AUC 0-t” value is reported as 203.1047 ± 21.4237 (10.55%) ng·h/mL; the “AUC 0-∞” value is reported as 207.7670 ± 25.0910 (12.08%) ng·h/mL; the Cmax is 31.7780 ± 2.4334 (7.66%) ng/mL; the Tmax is listed as 1.0000 (0.500, 2.000) h.
Turning to `COC(=O)OCOc1c2n(ccc1=O)N([C@@H]1c3ccccc3SCc3c1ccc(F)c3F)[C@@H]1COCCN1C2=O` [baloxavir marboxil], the Lung index in the series with IBV influenza B virus (24 h after administration) stood at 11.64 ± 1.06 mg/g. Also, the Lung index in the series with IBV influenza B virus (48 h after administration) was 11.45 ± 0.66^× mg/g. For the same compound, in the series on H3N2 influenza A virus (24 h after administration), the Lung index is 9.53 ± 0.80 mg/g and the PCR viral load is given as 1919953 ± 784647^×× copies. For the same compound, in the series with H3N2 influenza A virus (48 h after administration), the Lung index stood at 9.11 ± 0.96 mg/g and the PCR viral load turned out to be 320599 ± 202529 copies. Moreover, the EC50 in series [1] turned out to be 0.0134 µM. The IC50 at 48 h in series [2] was 11.6 µM. In addition, the EC50 in series [3] was 0.0154 µM. In addition, in series [4], the “AUC 0-t” value is 157.8227 ± 56.5111 (35.81%) ng·h/mL; the “AUC 0-∞” value is 160.9111 ± 57.8613 (35.96%) ng·h/mL; the Cmax was 23.1900 ± 7.9729 (34.38%) ng/mL; the Tmax is recorded as 1.0000 (0.250, 2.000) h.
Turning to `O=C1c2c(O)c(=O)ccn2N([C@@H]2c3ccccc3SCc3c2ccc(F)c3F)[C@@H]2COCCN12` [baloxavir], the EC50 in series [1] stood at 0.00131 µM; in series [3], 0.00206 µM. Moreover, the IC50 at 48 h in series [2] was 10.5 µM.
